# Measured values from patent US20210283261A1, “Compositions and Methods for Treating ALK-Mediated Cancer” (ICAHN SCHOOL OF MEDICINE AT MOUNT SINAI, priority 2017, published 2021).
# Key:
# NPM-ALK fusion protein = target: T1, NPM-ALK fusion protein (Homo sapiens, UniProt Q9UM73); test: Western blot of NPM-ALK fusion protein levels in SU-DHL-1 cells; type: cell-based; conditions: for effect on NPM-ALK fusion protein levels, time dependence: SU-DHL-1 cells, 0, 2, 4, 8, 16 and 24 h; for Dmax at 0.03 µM / reversibility of induced ALK fusion protein degradation after washout / rescue of induced NPM-ALK degradation by pomalidomide, MLN4924 and MG-132: SU-DHL-1 cells; for Dmax at 0.03 µM: 30 nM, Western blot, read-out: ALK fusion protein degradation, SU-DHL-1 (30 nM); for reversibility of induced ALK fusion protein degradation after washout: 100 nM for 2 h, PBS wash, fresh medium; for effect on NPM-ALK fusion protein levels, concentration dependence: SU-DHL-1 cells, 1, 3, 10, 30 or 100 nM, 16 h; for rescue of induced NPM-ALK degradation by pomalidomide, MLN4924 and MG-132: 2 h pre-treatment, then 100 nM compound for 6 h
# T1 construct: endogenous in cells; host or cells: SU-DHL-1; the other entry of the earlier key: NPM1 (P06748, Nucleophosmin)
# Method in brief: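 SU-DHL-1 cells treated with DMSO or compound serial dilutions for 16 h, or at 30 nM or 100 nM for varying times. NPM-ALK and phospho-ALK (Tyr1507) levels measured by Western blot and normalized to GAPDH.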
# [1] = target: T2, EML4-ALK v3 fusion protein (Homo sapiens, UniProt Q9UM73); test: Western blot of EML4-ALK v3 fusion protein levels in NCI-H2228 cells; type: cell-based; conditions: for effect on EML4-ALK fusion protein levels, time dependence: NCI-H2228 cells, 0, 2, 4, 8, 16 and 24 h; for effect on EML4-ALK fusion protein levels, concentration dependence: NCI-H2228 cells, 1, 3, 10, 30 or 100 nM, 16 h
# T2 construct: endogenous in cells; host or cells: NCI-H2228
# Procedure: Cells were cultured in a 37° C. incubator with 5% CO2.
# Cells were washed with cold PBS once and lysed in 1× Laemmli loading buffer directly. […] Membrane was blocked in 5% milk in Tris-buffered saline and Tween 20 (TBST) for 1 h at room temperature, followed by incubation with a primary antibody overnight at 4° C., and a horseradish peroxidase (HRP)-conjugated secondary antibody for 1 h at room temperature. The membrane was imaged by a ChemiDoc MP imaging system (BIO-RAD). Antibodies against GAPDH (abeam), Phospho-ALK (Tyr1507), ALK (Cell Signaling Technology), Tubulin (Santa Cruz) were purchased commercially.
# Cells were 70% confluent and treated with DMSO or indicated serial dilutions of compounds for 16 h. The EML4-ALK fusion protein levels were determined by Western blot and normalized against GPADH (right panel).
# ALK = test: Characterization of ALK degraders in ALCL and NSCLC cells (summary); type: cell-based; conditions: summary statement
# Source text: Specific exemplary ALK degraders/disruptors were characterized in various different anaplastic large cell lymphoma (ALCL) cells and non-small cell lung cancer (NSCLC) cells (Examples 4-19, FIGS. 1-18). […] This efficacy in suppressing ALK expression and ALK activity correlated with efficacy in inhibiting cancer cell proliferation.
# SU-DHL-1 cells = test: Cell viability assay in SU-DHL-1 cells; type: cell-based; conditions: CellTiter-Glo; for cell viability inhibition compared with negative controls: 3 days; for GI50: Homo sapiens, 60 h, 2.5 days, read-out: GI50 (drug concentration that results in 50% growth inhibition)
# Procedure: SU-DHL-1 cells were seeded in 96-well plates at a density of 1×10^4 cells per well, in triplicate. Treated cells with DMSO or indicated serial dilutions of compounds for 2.5 days. Cell growth/survival was measured by using the CellTiter-Glo luminescent cell viability assay following the manufacturer's instructions (Promega) or CCK8 cell viability assay (Sigma). Data was analyzed by using the GraphPad Prism software, Error bars represent ±SD for triplicate experiments.
# SU-DHL-1 cells were seeded in 96-well plates at a density of 1×10^4 cells per well, in triplicate. Treated cells with DMSO or indicated serial dilutions of compounds for 2.5 days. Cell growth/survival was measured by using the CellTiter-Glo luminescent cell viability assay. Data was analyzed by using the GraphPad Prism software, Error bars represent ±SD for triplicate experiments (left panel).
# SU-DHL-1 cells were seeded in 96-well plates at a density of 5000 cells per well, in triplicate. The cells were treated with DMSO or indicated serial dilutions of compounds for 3 days. Cell growth was measured using the CellTiter-Glo luminescent cell viability assay. Data were analyzed using the GraphPad Prism.
# SU-DHL-1 and NCI-3122 cells were treated with DMSO or indicated serial dilutions of compounds for 3 days. Data were analyzed using the GraphPad Prism.
# Phospho-ALK (Tyr1507) = target: T3, Phospho-ALK (Tyr1507) (Homo sapiens, UniProt Q9UM73); test: Western blot of ALK phosphorylation at Tyr1507 (ALK activity) in SU-DHL-1 cells; type: cell-based; conditions: 3 nM, 16 h
# T3 construct: endogenous in cells; host or cells: SU-DHL-1; the other entry of the earlier key: NPM1 (P06748, Nucleophosmin)
# Procedure: Cells were washed with cold PBS once and lysed in 1× Laemmli loading buffer directly. Lysates were heated at 99° C. for […], and resolved on 4-15% precast SDS-PAGE (BIO-RAD) and transferred onto PVDF membrane. Membrane was blocked in 5% milk in Tris-buffered saline and Tween 20 (TBST) for 1 h at room temperature, followed by incubation with a primary antibody overnight at 4° C., and a horseradish peroxidase (HRP)-conjugated secondary antibody for 1 h at room temperature. The membrane was imaged by a ChemiDoc MP imaging system (BIO-RAD). Antibodies against GAPDH (abeam), Phospho-ALK (Tyr1507), ALK (Cell Signaling Technology), Tubulin (Santa Cruz) were purchased commercially.
# SU-DHL-1 cells were seeded in 12-well plates at a density of 4×10^5/mL and treated with DMSO or indicated serial dilutions of compounds for 16 h. The NPM-ALK fusion protein levels were determined by Western blot and normalized against GPADH (right panel).
# [2] = Standard PK study in mice, plasma concentrations; type: in vivo, male Swiss Albino mice; conditions: single 50 mg/kg intraperitoneal (IP) injection, 30 min to 12 h
# Procedure: Standard PK studies were conducted using male Swiss Albino mice. […] Error bars represent ±SD for triplicate samples.
# T2 sequence (Q9UM73 1058-1620 limits assumed): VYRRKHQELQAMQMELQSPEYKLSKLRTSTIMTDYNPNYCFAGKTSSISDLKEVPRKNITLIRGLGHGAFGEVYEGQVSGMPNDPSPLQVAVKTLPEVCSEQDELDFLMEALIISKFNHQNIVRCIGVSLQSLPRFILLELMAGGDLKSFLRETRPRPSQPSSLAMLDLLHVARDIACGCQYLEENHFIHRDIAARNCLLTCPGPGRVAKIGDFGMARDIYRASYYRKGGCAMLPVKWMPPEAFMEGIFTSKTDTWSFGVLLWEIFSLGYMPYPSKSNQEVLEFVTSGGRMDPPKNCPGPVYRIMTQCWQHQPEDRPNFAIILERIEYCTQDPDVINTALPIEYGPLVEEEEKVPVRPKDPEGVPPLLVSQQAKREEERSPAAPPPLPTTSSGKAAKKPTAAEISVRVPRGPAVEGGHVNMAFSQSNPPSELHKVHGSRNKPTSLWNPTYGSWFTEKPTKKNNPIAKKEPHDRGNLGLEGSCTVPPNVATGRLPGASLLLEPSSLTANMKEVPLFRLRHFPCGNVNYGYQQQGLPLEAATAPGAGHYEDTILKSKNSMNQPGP
# T1 sequence (Q9UM73 with tags, fused parts or gaps): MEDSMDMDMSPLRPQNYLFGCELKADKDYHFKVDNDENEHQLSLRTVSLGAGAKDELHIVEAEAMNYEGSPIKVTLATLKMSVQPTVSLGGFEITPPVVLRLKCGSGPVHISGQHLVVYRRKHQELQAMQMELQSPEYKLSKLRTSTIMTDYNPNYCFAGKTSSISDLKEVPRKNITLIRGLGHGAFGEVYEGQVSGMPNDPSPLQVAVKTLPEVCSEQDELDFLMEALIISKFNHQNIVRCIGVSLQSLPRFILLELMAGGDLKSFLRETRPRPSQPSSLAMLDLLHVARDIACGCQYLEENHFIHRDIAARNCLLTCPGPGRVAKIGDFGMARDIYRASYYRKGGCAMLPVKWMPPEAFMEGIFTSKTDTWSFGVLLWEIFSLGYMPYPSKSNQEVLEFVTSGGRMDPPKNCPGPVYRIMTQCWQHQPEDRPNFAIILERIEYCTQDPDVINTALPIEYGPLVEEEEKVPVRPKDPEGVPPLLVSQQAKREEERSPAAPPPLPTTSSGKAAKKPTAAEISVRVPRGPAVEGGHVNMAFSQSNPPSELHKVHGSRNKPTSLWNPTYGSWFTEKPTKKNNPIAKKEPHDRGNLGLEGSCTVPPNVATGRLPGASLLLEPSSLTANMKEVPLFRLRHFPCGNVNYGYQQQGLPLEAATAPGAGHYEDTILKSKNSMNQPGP
# T3 sequence (Q9UM73 with tags, fused parts or gaps): as above
Compound,"effect on NPM-ALK fusion protein levels, time dependence (NPM-ALK fusion protein)",Dmax at 0.03 µM (NPM-ALK fusion protein) [%],reversibility of induced ALK fusion protein degradation after washout (NPM-ALK fusion protein),"effect on NPM-ALK fusion protein levels, concentration dependence (NPM-ALK fusion protein)","rescue of induced NPM-ALK degradation by pomalidomide, MLN4924 and MG-132 (NPM-ALK fusion protein)","effect on EML4-ALK fusion protein levels, time dependence [1]","effect on EML4-ALK fusion protein levels, concentration dependence [1]",suppressing both ALK expression and ALK activity (ALK),cell viability inhibition compared with negative controls (SU-DHL-1 cells),GI50 (SU-DHL-1 cells) [nM],inhibition of ALK activity (phosphorylation at Tyr1507) (Phospho-ALK (Tyr1507)),bioavailability in mice [2]
"Cc1cc(Nc2ncc(Cl)c(Nc3ccccc3S(=O)(=O)C(C)C)n2)c(OC(C)C)cc1C1CCN(CC(=O)NCCOCCOCCOCCOCCOCCNc2cccc3c2C(=O)N(C2CCC(=O)NC2=O)C3=O)CC1 (centres unmarked) [CZ40-77, 2-(4-(4-((5-Chloro-4-((2-(isopropylsulfonyl)phenyl)amino)pyrimidin-2-yl)amino)-5-isopropoxy-2-methylphenyl)piperidin-1-yl)-N-(17-((2-(2,6-dioxopiperidin-3-yl)-1,3-dioxoisoindolin-4-yl)amino)-3,6,9,12,15-pentaoxaheptadecyl)acetamide]",time-dependently reduced,> 80,Reversible,concentration-dependently reduced,significantly rescued,time-dependently reduced,concentration-dependently reduced,especially effective,better cell viability inhibition,< 40,strongly inhibited,
"Cc1cc(Nc2ncc(Cl)c(Nc3ccccc3S(=O)(=O)C(C)C)n2)c(OC(C)C)cc1C1CCN(CC(=O)NCCNc2cccc3c2C(=O)N(C2CCC(=O)NC2=O)C3=O)CC1 (centres unmarked) [CZ40-78, 2-(4-(4-((5-Chloro-4-((2-(isopropylsulfonyl)phenyl)amino)pyrimidin-2-yl)amino)-5-isopropoxy-2-methylphenyl)piperidin-1-yl)-N-(2-((2-(2,6-dioxopiperidin-3-yl)-1,3-dioxoisoindolin-4-yl)amino)ethyl)acetamide]",time-dependently reduced,> 80,Reversible,concentration-dependently reduced,significantly rescued,time-dependently reduced,concentration-dependently reduced,especially effective,better cell viability inhibition,< 40,strongly inhibited,Bioavailable
